Data reported in patent US5245034A, “Compound having vessel smooth muscle relaxation activity” (Hidaka; Kiroyoshi, priority 1988, dated 1993).

Assays:
washed platelets = experiment: Platelet Agglutination Inhibition (P.A.), collagen-induced; type: cell-based, human (healthy person); settings: Homo sapiens, washed platelets, collagen, 37° C., read-out: P.A. (IC50)
Method: To this suspension was added one sixth volume of ACD solution, and the whole was further centrifuged at 1500×G for 5 minutes to prepare a platelet pellet. The platelet pellet was then suspended in a modified HEPES Tyrode solution to obtain about 3×10^5 /μl in washed platelet suspension.
To 270 μl of the washed platelet suspension was added 3 μl of a solution of a test compound dissolved in an appropriate medium in different concentration, and the mixture was pre-incubated at 37° C. for 2 minutes.
As a control, the above-mentioned procedure was carried out except that the test medium without a test compound was used, and the absorbance before addition of collagen and the maximum absorbance after addition of collagen were measured, and the difference between both absorbances was taken as 100% agglutination.
For test compound, the absorbance before an addition of collagen and the maximum absorbance after an addition of collagen were measured, and a percent of the inhibition was determined, compared with the control.

[1] = test system: superior mesenteric artery (contracted by potassium chloride); experiment: Vessel Smooth Muscle Relaxation Action (V.R.); type: cell-based, rabbit; settings: Oryctolagus cuniculus; concentration relaxing KCl-contracted strain to 50%; cumulative administration; read-out: V.R. (ED50)
From the text: The specimen was suspended by loading a strain in Krebs-Henseleit solution through which an oxygen gas containing 5% carbon dioxide was bubbled. The specimen was contracted by adding potassium chloride to maintain a predetermined strain. Thereafter, a test compound was cumulatively administrated.

[2] = target: Calmodulin-Dependent Phosphodiesterase (Ca^2+ PDE); experiment: Calmodulin-Dependent Phosphodiesterase Inhibition (Ca^2+ PDE); type: biochemical, rat; settings: [^3 H]-cGMP, 30° C.
Method: Phosphodiesterase (Ca^2+ PDE)Ca^2+ PDE was partially purified from the brain of rat by DEAE-Sepharose column chromatography.
Calmodulin was purified from the calf brain using a calmodulin inhibitor W-7 affinity column.
A reaction mixture contained 20 μl of 500 mM Tris-HCl (pH 8.0), 20 μl of 50 mM MgCl2, 20 μl of 2 mM CaCl2 (or 10 mM EGTA), 20 μl of 1 mg/ml bovine serum albumin, PDE, […] of calmodulin, test sample and distilled water to make total volume 200 μl. To the mixture was added 20 μl of 4 μM [^3 H]-cGMP (2.5 μCi/ml), the mixture was incubated at 30° C. for 15 minutes, and then heated in boiling water for 3 to 5 minutes to terminate the reaction, and cooled in ice-water bath. 20 μg of 5'-nucleotidase (Snake venum) was added to the mixture, and the mixture was again incubated at 30° C. for 10 minutes. After addition of about 2 ml of water, the sample was applied to a cation exchange resin column (Biorad AG.AG50W-X4 to adsorbe the [^3 H]-guanosine and additionally about 2 ml of washing water for the sample was added to the column. The column was washed with about 20 ml of water, and the adsorbed [^3 H]-guanosine was eluted with 3 ml of 3N NH4 OH, and the elute was directly received by a vial. After an addition of 10 ml of an emulsified scintillation solution (ACS-II, AMERSHAM) the radio activity was measured by a scintillation counter LS7500 (Beckmann). The enzyme activity in the presence of calmodulin was taken as […], and a concentration of a test compound in μM which provides a 50% inhibition was expressed as IC50.

SMILES	IC50 (washed platelets) [µM]	EC50 [1] [µM]	IC50 [2] [µM]
Cc1ccc(S(=O)(=O)N(C)c2ccc(CC(C(=O)N3CCN(c4ccccc4)CC3)N(C)S(=O)(=O)c3cccc4cnccc34)cc2)cc1 (stereo not shown) [Example 26, 1-{N-(5-isoquinolinesulfonyl)-N-methyl-p-[N'-methyl-N'-(p-toluenesulfonyl)amino]phenylalanyl}-4-phenylpiperazine]	10	–	–
O=C(OCc1ccccc1)N1CCN(C(=O)[C@H](Cc2ccc(O)cc2)NS(=O)(=O)c2cccc3cnccc23)CC1 [Example 29, 1-Benzyloxycarbonyl-4-[N-(5-Isoquinolinesulfonyl)Tyrosyl]Piperazine]	73	7.6	–
O=S(=O)(NC(Cc1ccc(O)cc1)CN1CCN(c2ncccn2)CC1)c1cccc2cnccc12 (stereo not shown) [Example 40, N-{1-(p-hydroxybenzyl)-2-[4-(2-pyrimidyl)piperazinyl]ethyl}-5-isoquinolinesulfonamide]	4.7	–	–
CN(C(Cc1ccc(OS(=O)(=O)c2cccc3cnccc23)cc1)CN1CCN(c2ncccn2)CC1)S(=O)(=O)c1cccc2cnccc12 (stereo not shown) [Example 41, N-{1-[p-(5-isoquinolinesulfonyloxy)benzyl]-2-[4-(2-pyrimidyl)piperazinyl]ethyl}-N-methyl-5-isoquinolinesulfonamide]	10	1.8	–
CN(C(Cc1ccc(O)cc1)CN1CCN(c2ccc(F)cc2)CC1)S(=O)(=O)c1cccc2cnccc12 (stereo not shown) [Example 50, N-{1-(p-hydroxybenzyl)-2-[4-(p-fluorophenyl)piperazinyl]ethyl}-N-methyl-5-isoquinolinesulfonamide]	70	0.67	–
CN(C(Cc1ccc(OS(=O)(=O)c2cccc3cnccc23)cc1)CN1CCN(C(=O)OCc2ccccc2)CC1)S(=O)(=O)c1cccc2cnccc12 (stereo not shown) [Example 60, N-{2-(4-Benzyloxycarbonylpiperazinyl)-1-[P-(5-Isoquinolinesulfonyloxy)Benzyl]Ethyl}-N-Methyl-5-Isoquinolinesulfonamide]	10	–	–
CN(C(Cc1ccc(OS(=O)(=O)c2cccc3cnccc23)cc1)CN1CCN(S(=O)(=O)c2ccccc2)CC1)S(=O)(=O)c1cccc2cnccc12 (stereo not shown) [Example 61, N-{2-[(4-Benzenesulfonyl)Piperazinyl]-1-[P-(5-Isoquinolinesulfonyloxy)Benzyl]Ethyl}-N-Methyl-5-Isoquinolinesulfonamide]	10	–	–
O=C(NCc1ccccc1)N1CCN(CC(Cc2ccc(O)cc2)NS(=O)(=O)c2cccc3cnccc23)CC1 (stereo not shown) [Example 71, N-[2-(4-benzylaminocarbonylpiperazinyl)-1-(p-hydroxybenzyl)ethyl]-5-isoquinolinesulfonamide]	93	14	–
COc1ccc(N2CCN(CC(Cc3ccc(N4C(=O)c5ccccc5C4=O)cc3)N(C)S(=O)(=O)c3cccc4cnccc34)CC2)cc1 (stereo not shown) [Example 126, N-{2-[4-(P-Methoxyphenyl)Piperazinyl]-1-(P-Phthalimidebenzyl)Ethyl}-N-Methyl-5-Isoquinolinesulfonamide]	10	–	–
CC(C=Cc1ccc(Cl)cc1)NCCNS(=O)(=O)c1cccc2cnccc12 (stereo not shown) [Example 153]	25	1.5	–
CC(C=Cc1ccccc1)NCCNS(=O)(=O)c1cccc2cnccc12 (stereo not drawn) [Example 154, N-[2-(α-Methylcinnamylamino)Ethyl]-5-Isoquinolinesulfonamide]	60	–	–
CC(C=Cc1ccc(F)cc1F)NCCNS(=O)(=O)c1cccc2cnccc12 (stereo not shown) [Example 155]	55	4.1	–
CC(C=Cc1ccccc1[N+](=O)[O-])NCCNS(=O)(=O)c1cccc2cnccc12 (stereo not shown) [Example 158]	–	17	21
Cc1ccc(C=CC(C)NCCNS(=O)(=O)c2cccc3cnccc23)cc1 (stereo not shown) [Example 160]	56	1.8	–
O=S(=O)(NCCNCC=CC=Cc1ccc(C(F)(F)F)cc1)c1cccc2cnccc12 [Example 180, N-{2-[5-(4-Trifluoromethylphenyl)-2,4-Pentadienylamino]Ethyl}-5-Isoquinolinesulfonamide]	–	1.8	4.8
O=S(=O)(c1cccc2cnccc12)N(CC#Cc1ccc(Cl)cc1)CCNCC#Cc1ccc(Cl)cc1 [Example 189-III]	–	0.29	1
O=S(=O)(c1cccc2cnccc12)N1CCN(CC=Cc2ccc(Cl)cc2)CC1 [Example 191, 1-(4-Chlorocinnamyl)-4-(5-Isoquinolinesulfonyl)Piperazine]	–	1.9	26
CCN(CC=Cc1ccc(Cl)cc1)CCN(CC)S(=O)(=O)c1cccc2cnccc12 [Example 192, N-Ethyl-N-[2-(4-Chloro-N-Ethylcinnamylamino)Ethyl]-5-Isoquinolinesulfonamide]	–	0.12	84
O=CN(CC=Cc1ccc(Cl)cc1)CCNS(=O)(=O)c1cccc2cnccc12 [Example 193, N-[2-(4-Chloro-N-Formylcinnamylamino)ethyl]-5-Isoquinolinesulfonamide]	–	3.2	12

Second part, the molecule after the results:

IC50 (washed platelets) [µM]	EC50 [1] [µM]	IC50 [2] [µM]	SMILES
6	3.3 ± 1.4	–	O=C(OCc1ccccc1)N1CCN(CC(Cc2ccc(O)cc2)NS(=O)(=O)c2cccc3cnccc23)CC1 (stereo not shown) [Example 68, N-[2-(4-benzyloxycarbonylpiperazinyl)-1-(p-hydroxybenzyl)ethyl]-5-isoquinolinesulfonamide]
2.8	–	–	CN(C(Cc1ccc(OS(=O)(=O)c2cccc3cnccc23)cc1)CN1CCN(C(=O)c2ccccc2)CC1)S(=O)(=O)c1cccc2cnccc12 (stereo not shown) [Example 74, N-{2-(4-Benzoylpiperazinyl)-1-[P-(5-Isoquinolinesulfonyloxy)Benzyl]Ethyl}-N-Methyl-5-Isoquinolinesulfonamide]
39	–	–	CN(Cc1ccccc1)C1CCN(CC(Cc2ccc(O)cc2)N(C)S(=O)(=O)c2cccc3cnccc23)CC1 (stereo not shown) [Example 97, N-{2-[4-(N-Benzyl-N-Methylamino)Piperidino]-1-(P-Hydroxybenzyl)Ethyl}-N-Methyl-5-Isoquinolinesulfonamide]
100	54	–	CN(C(Cc1ccc(O)cc1)CN1CCCNCC1)S(=O)(=O)c1cccc2cnccc12 (stereo not shown) [Example 114, N-[1-(p-hydroxy)benzyl-2-homopiperazinylethyl]-N-methyl-5-isoquinolinesulfonamide]
22	4.8	–	O=C(OCc1ccccc1)N1CCCN(C(=O)[C@H](Cc2ccc(O)cc2)NS(=O)(=O)c2cccc3cnccc23)CC1 [Example 123, 1-Benzyloxycarbonyl-4-[N-(5-Isoquinolinesulfonyl)Tyrosyl]Homopiperazine]
39	–	–	COc1ccc(N2CCN(CC(Cc3ccc(N)cc3)NS(=O)(=O)c3cccc4cnccc34)CC2)cc1 (stereo not shown) [Example 127, N-{1-(p-aminovenzyl)-2-[4-(p-methoxyphenyl)piperazinyl]ethyl}-5-isoquinolinesulfonamide]
12	–	–	O=S(=O)(Nc1ccccc1NCC=Cc1cccnc1)c1cccc2cnccc12 [Example 145, N-{2-[3-(3-pyridyl)allylamino]phenyl}-5-isoquinolinesulfonamide]
–	1.2	42	O=S(=O)(Nc1ncccc1NCC=Cc1ccc(Cl)cc1)c1cccc2cnccc12 [Example 147, 3-(4-Chlorocinnamylamino)-2-(5-Isoquinolinesulfonylamino)Pyridine]
–	2	13	O=S(=O)(NCCNCC=Cc1ccc(F)cc1)c1cccc2cnccc12 [Example 175, N-[2-(4-Fluorocinnamylamino)ethyl]-5-Isoquinolinesulfonamide]
–	2.4	50	COc1ccc(C=CCNCCNS(=O)(=O)c2cccc3cnccc23)cc1 [Example 178, N-[2-(4-Methoxycinnamylamino)ethyl]-5-Isoquinolinesulfonamide]
–	2.8	12	O=S(=O)(NCCNCC=Cc1cccc2ccccc12)c1cccc2cnccc12 [Example 184, N-{2-[3-(1-Naphthyl)-2-Propenylamino]ethyl}-5-Isoquinolinesulfonamide]
–	0.22	2.7	O=S(=O)(NCCNCC#Cc1ccc(Cl)cc1)c1cccc2cnccc12 [Example 189-I, N-{2-[3-(4-Chlorophenyl)-2-Propynylamino]Ethyl}-5-Isoquinolinesulfonamide]
